Assay results as given in patent US10253015B2, “Pyridinyl quinolinone derivatives as mutant-isocitrate dehydrogenase inhibitors” (FORMA TM2, Inc., priority 2014, dated 2019).

Tests used:
[1] = target: IDH1-R132C recombinant protein (Homo sapiens (Human), UniProt O75874, R132C); test: IDH1-R132C enzymatic assay; format: biochemical; settings: inhibition of NADPH consumption, diaphorase/resazurin readout; read-out: Enzyme IDH1 R132C Range IC50
Protocol: (§1) Assays were performed in a 384-well black plate. […] After the plate was centrifuged briefly, an aliquot of 10 μL of 2 mM α-ketoglutarate and 20 μM NADPH solution prepared in assay buffer was then added to each well and the reaction was maintained at 25° C. for 45 minutes. An aliquot of 10 μL of diaphorase solution (0.15 U/mL diaphorase and 30 μM Resazurin in assay buffer) was added to each well. […] The IC50 of a given compound was calculated by fitting the dose response curve of inhibition of NADPH consumption at a given concentration with the four parameter logistic equation.

[2] = target: IDH1-R132H recombinant protein (Homo sapiens (Human), UniProt O75874, R132H); test: IDH1-R132H enzymatic assay; format: biochemical; settings: inhibition of NADPH consumption, diaphorase/resazurin readout; read-out: Enzyme IDH1 R132H Range IC50
Protocol: as §1

[3] = system: HCT116 isogenic IDH1-R132C mutant cells; test: Cellular 2-HG assay using HCT116 mutant IDH1 cells (R132C); format: cell-based; settings: Homo sapiens, HCT-116; cellular 2-HG inhibition, 24 hours, RapidFire mass spectrometry; read-out: HCT IDH1 R132C Range IC50
Protocol: HCT116 isogenic IDH1-R132H and IDH1-R132C mutant cells were cultured in growth media (McCoy's 5 A, 10% fetal bovine serum, 1× antibiotic-antimycotic solution and 0.3 mg/mL G418) in 5% CO2 in an incubator at 37° C. To prepare the assay, cells were trypsinized and resuspended in assay media (McCoy's 5 A with no L-glutamine, 10% fetal bovine serum, 1× antibiotic-antimycotic solution and 0.3 mg/mL G418). An aliquot of 10,000 cells/100 μL was transferred to each well of a clear 96-well tissue culture plate. The cells were incubated in 5% CO2 at 37° C. in an incubator overnight to allow for proper cell attachment. An aliquot of 50 μL of compound containing assay media were then added to each well and the assay plate was kept in 5% CO2 at 37° C. in an incubator for 24 hours. The media was then removed from each well and 150 μL of a methanol/water mixture (80/20 v/v) was added to each well. The plates were kept at −80° C. freezer overnight to allow for complete cell lysis. An aliquot of 125 μL of extracted supernatant was analyzed by RapidFire high-throughout-mass spectrometry (Agilent) to determine the cellular 2-HG level. The IC50 of a given compound was calculated by fitting the dose response curve of cellular 2-HG inhibition at a given concentration with the four parameter logistic equation

IDH1-R132C recombinant protein, sequence (O75874 whole entry R132C): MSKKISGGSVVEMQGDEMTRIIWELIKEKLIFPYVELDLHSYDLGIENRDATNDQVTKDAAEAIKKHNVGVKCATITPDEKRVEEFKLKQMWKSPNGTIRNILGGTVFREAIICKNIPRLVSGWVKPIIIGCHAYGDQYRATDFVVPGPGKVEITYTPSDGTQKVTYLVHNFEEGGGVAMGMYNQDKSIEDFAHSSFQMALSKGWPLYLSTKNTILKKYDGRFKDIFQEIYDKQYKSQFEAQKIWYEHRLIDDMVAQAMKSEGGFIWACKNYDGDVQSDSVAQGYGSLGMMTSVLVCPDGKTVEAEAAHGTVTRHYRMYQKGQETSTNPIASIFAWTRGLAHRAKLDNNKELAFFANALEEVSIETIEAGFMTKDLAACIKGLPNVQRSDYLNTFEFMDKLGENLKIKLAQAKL
IDH1-R132H recombinant protein, sequence (O75874 whole entry R132H): as the sequence (O75874 whole entry R132C) above, with C132H counted along it

`C[C@H](Nc1cc(-c2ccnn2C)ccn1)c1cc2cc(Cl)ccc2[nH]c1=O` [Compound I-49, 6-chloro-3-[(1S)-1-{[4-(1-methyl-1H-pyrazol-5-yl)pyridin-2-yl]amino}ethyl]-1,2-dihydroquinolin-2-one] showed an IC50 [1] of 1000 to 10000 nM and an IC50 [2] of 1000 to 10000 nM.
For `Cc1cc(NCc2cc3cc(Cl)ccc3[nH]c2=O)ncc1C#N` [Compound I-59, 6-{[(6-chloro-2-oxo-1,2-dihydroquinolin-3-yl)methyl]amino}-4-methylpyridine-3-carbonitrile], the IC50 [1] was 1000 to 10000 nM and the IC50 [2] was 100 to 1000 nM.
`COc1cc(N[C@@H](C)c2cc3cc(Cl)ccc3n(C)c2=O)ncc1C#N` [Compound I-2, 6-{[(1S)-1-(6-chloro-1-methyl-2-oxo-1,2-dihydroquinolin-3-yl)ethyl]amino}-4-methoxypyridine-3-carbonitrile] showed an IC50 [1] of 1000 to 10000 nM and an IC50 [2] of 1000 to 10000 nM.
Work on `CC(C)n1nccc1-c1ccnc(N[C@@H](C)c2cc3cc(Cl)ccc3[nH]c2=O)c1` [Compound I-44, 6-chloro-3-[(1S)-1-({4-[1-(propan-2-yl)-1H-pyrazol-5-yl]pyridin-2-yl}amino)ethyl]-1,2-dihydroquinolin-2-one] yielded an IC50 [1] of 1000 to 10000 nM and an IC50 [2] of 1000 to 10000 nM.
In the case of `Cc1nc(NCc2cc3cc(Cl)c(OCCN4CCN(S(C)(=O)=O)CC4)cc3[nH]c2=O)ccc1C#N` [Compound I-85, 6-[({6-chloro-7-[2-(4-methanesulfonylpiperazin-1-yl)ethoxy]-2-oxo-1,2-dihydroquinolin-3-yl}methyl)amino]-2-methylpyridine-3-carbonitrile], the IC50 [1] is reported as 100 to 1000 nM and the IC50 [2] is reported as under 100 nM.
`C[C@H](Nc1cc(-c2ccnn2C2CCCCO2)ccn1)c1cc2cc(Cl)ccc2[nH]c1=O` (stereo partly drawn) [Compound I-47, 6-chloro-3-[(1S)-1-({4-[1-(oxan-2-yl)-1H-pyrazol-5-yl]pyridin-2-yl}amino)ethyl]-1,2-dihydroquinolin-2-one] was tested, and the IC50 [1] was 1000 to 10000 nM and the IC50 [2] was 1000 to 10000 nM.
`C[C@H](Nc1cc(-c2c[nH]nc2C(F)(F)F)ccn1)c1cc2cc(Cl)ccc2[nH]c1=O` [Compound I-50, 6-chloro-3-[(1S)-1-({4-[3-(trifluoromethyl)-1H-pyrazol-4-yl]pyridin-2-yl}amino)ethyl]-1,2-dihydroquinolin-2-one] showed an IC50 [1] of over 10000 nM and an IC50 [2] of 1000 to 10000 nM.
In the case of `C[C@H](Nc1cc(-c2ccn[nH]2)ccn1)c1cc2cc(Cl)ccc2[nH]c1=O` [Compound I-41, 6-chloro-3-[(1S)-1-{[4-(1H-pyrazol-5-yl)pyridin-2-yl]amino}ethyl]-1,2-dihydroquinolin-2-one], the IC50 [1] is reported as 1000 to 10000 nM and the IC50 [2] is reported as 1000 to 10000 nM.
`CC(C)[C@H]1COC(=O)N1c1cccc(N[C@@H](C)c2cc3cc(Cl)ccc3[nH]c2=O)n1` [Compound I-19, 6-chloro-3-[(1S)-1-({6-[(4S)-2-oxo-4-(propan-2-yl)-1,3-oxazolidin-3-yl]pyridin-2-yl}amino)ethyl]-1,2-dihydroquinolin-2-one] gave an IC50 [1] of 1000 to 10000 nM and an IC50 [2] of 100 to 1000 nM.
Work on `C[C@H](Nc1cc(N2CCOC2=O)ccn1)c1cc2cc(Cl)ccc2[nH]c1=O` [Compound I-10, 6-chloro-3-[(1S)-1-{[4-(2-oxo-1,3-oxazolidin-3-yl)pyridin-2-yl]amino}ethyl]-1,2-dihydroquinolin-2-one] yielded an IC50 [1] of 1000 to 10000 nM and an IC50 [2] of under 100 nM.
`COc1cc2[nH]c(=O)c([C@H](C)Nc3ccc(C#N)c(C)n3)cc2cc1Cl` [Compound I-23, 6-{[(1S)-1-(6-chloro-7-methoxy-2-oxo-1,2-dihydroquinolin-3-yl)ethyl]amino}-2-methylpyridine-3-carbonitrile] was tested, and the IC50 [3] was 10 to 100 nM.
Work on `Cc1cc(-c2ccnc(N[C@@H](C)c3cc4cc(Cl)ccc4[nH]c3=O)c2F)n(C)n1` [Compound I-52, 6-chloro-3-[(1S)-1-{[4-(1,3-dimethyl-1H-pyrazol-5-yl)-3-fluoropyridin-2-yl]amino}ethyl]-1,2-dihydroquinolin-2-one] yielded an IC50 [1] of over 10000 nM and an IC50 [2] of 1000 to 10000 nM.
`CC(Nc1cc(N2C(=O)OC[C@@H]2C(C)C)ccn1)c1cc2cc(Cl)ccc2[nH]c1=O` (stereo partly drawn) [Compound I-18, 6-chloro-3-[1-({4-[(4S)-2-oxo-4-(propan-2-yl)-1,3-oxazolidin-3-yl]pyridin-2-yl}amino)ethyl]-1,2-dihydroquinolin-2-one] was tested, and the IC50 [1] was 1000 to 10000 nM and the IC50 [2] was 100 to 1000 nM.
With `CC(C)Cn1nccc1-c1ccnc(N[C@@H](C)c2cc3cc(Cl)ccc3[nH]c2=O)c1F` [Compound I-56, 6-chloro-3-[(1S)-1-({3-fluoro-4-[1-(2-methylpropyl)-1H-pyrazol-5-yl]pyridin-2-yl}amino)ethyl]-1,2-dihydroquinolin-2-one] the IC50 [1] was over 10000 nM and the IC50 [2] was over 10000 nM.
`N#Cc1ccc(NCc2cc3cc(Cl)ccc3[nH]c2=O)nc1` [Compound I-67, 6-{[(6-chloro-2-oxo-1,2-dihydroquinolin-3-yl)methyl]amino}pyridine-3-carbonitrile] showed an IC50 [1] of over 10000 nM and an IC50 [2] of 100 to 1000 nM.
Compound `CC(=O)Nc1ccnc(N[C@@H](C)c2cc3cc(Cl)ccc3[nH]c2=O)c1F` [Compound I-34, N-(2-{[(1S)-1-(6-chloro-2-oxo-1,2-dihydroquinolin-3-yl)ethyl]amino}-3-fluoropyridin-4-yl)acetamide] has an IC50 [1] of 100 to 1000 nM and an IC50 [2] of under 100 nM.
`C[C@H](Nc1nccc(NCCO)c1F)c1cc2cc(Cl)ccc2[nH]c1=O` [Compound I-36, 6-chloro-3-[(1S)-1-({3-fluoro-4-[(2-hydroxyethyl)amino]pyridin-2-yl}amino)ethyl]-1,2-dihydroquinolin-2-one] was tested, and the IC50 [1] was over 10000 nM and the IC50 [2] was 1000 to 10000 nM.
Compound `C[C@H](Nc1cccc(N2CCOC2=O)n1)c1cc2cc(Cl)ccc2[nH]c1=O` [Compound I-11, 6-chloro-3-[(1S)-1-{[6-(2-oxo-1,3-oxazolidin-3-yl)pyridin-2-yl]amino}ethyl]-1,2-dihydroquinolin-2-one] has an IC50 [3] of 100 to 1000 nM.
For `Cc1cc(-c2ccnc(N[C@@H](C)c3cc4cc(Cl)ccc4[nH]c3=O)c2)n(C)n1` [Compound I-39, 6-chloro-3-[(1S)-1-{[4-(1,3-dimethyl-1H-pyrazol-5-yl)pyridin-2-yl]amino}ethyl]-1,2-dihydroquinolin-2-one], the IC50 [1] was 100 to 1000 nM and the IC50 [2] was 1000 to 10000 nM.
`Cc1cscc1-c1ccnc(N[C@@H](C)c2cc3cc(Cl)ccc3[nH]c2=O)c1` [Compound I-48, 6-chloro-3-[(1S)-1-{[4-(4-methylthiophen-3-yl)pyridin-2-yl]amino}ethyl]-1,2-dihydroquinolin-2-one] showed an IC50 [1] of 1000 to 10000 nM and an IC50 [2] of 1000 to 10000 nM.
`COc1cc2[nH]c(=O)c(C(C)Nc3ccc(C#N)c(C)n3)cc2cc1Cl` (stereo not shown) [Compound I-24, 6-{[1-(6-chloro-7-methoxy-2-oxo-1,2-dihydroquinolin-3-yl)ethyl]amino}-2-methylpyridine-3-carbonitrile] was tested, and the IC50 [3] was 100 to 1000 nM.
`C[C@H](Nc1cc(N2C(=O)OCC2(C)C)ccn1)c1cc2cc(Cl)ccc2[nH]c1=O` [Compound I-13, 6-chloro-3-[(1S)-1-{[4-(4,4-dimethyl-2-oxo-1,3-oxazolidin-3-yl)pyridin-2-yl]amino}ethyl]-1,2-dihydroquinolin-2-one] showed an IC50 [1] of 1000 to 10000 nM and an IC50 [2] of 100 to 1000 nM.
In the case of `CC(C)Cn1nccc1-c1ccnc(N[C@@H](C)c2cc3cc(Cl)ccc3[nH]c2=O)c1` [Compound I-43, 6-chloro-3-[(1S)-1-({4-[1-(2-methylpropyl)-1H-pyrazol-5-yl]pyridin-2-yl}amino)ethyl]-1,2-dihydroquinolin-2-one], the IC50 [1] is reported as 1000 to 10000 nM and the IC50 [2] is reported as 1000 to 10000 nM.
For `C[C@H](Nc1nccc(-c2ccnn2C)c1F)c1cc2cc(Cl)ccc2[nH]c1=O` [Compound I-53, 6-chloro-3-[(1S)-1-{[3-fluoro-4-(1-methyl-1H-pyrazol-5-yl)pyridin-2-yl]amino}ethyl]-1,2-dihydroquinolin-2-one], the IC50 [1] was over 10000 nM and the IC50 [2] was 1000 to 10000 nM.
For `O=c1[nH]c2ccc(Cl)cc2cc1CNc1cc(C(F)(F)F)ccn1` [Compound I-79, 6-chloro-3-({[4-(trifluoromethyl)pyridin-2-yl]amino}methyl)-1,2-dihydroquinolin-2-one], the IC50 [2] was over 10000 nM.
Compound `N#Cc1ccc(NCc2cc3cc(Cl)ccc3[nH]c2=O)cn1` [Compound I-78, 5-{[(6-chloro-2-oxo-1,2-dihydroquinolin-3-yl)methyl]amino}pyridine-2-carbonitrile] has an IC50 [2] of over 10000 nM.
Work on `N#Cc1ccc(NCc2cc3cc(Cl)ccc3[nH]c2=O)nc1Cl` [Compound I-62, 2-chloro-6-{[(6-chloro-2-oxo-1,2-dihydroquinolin-3-yl)methyl]amino}pyridine-3-carbonitrile] yielded an IC50 [2] of over 10000 nM.
Work on `C[C@H](Nc1cccc(N2CCCS2(=O)=O)n1)c1cc2cc(Cl)ccc2[nH]c1=O` [Compound I-35, 2-(6-{[(1S)-1-(6-chloro-2-oxo-1,2-dihydroquinolin-3-yl)ethyl]amino}pyridin-2-yl)-1λ^6,2-thiazolidine-1,1-dione] yielded an IC50 [2] of 1000 to 10000 nM.
